Results as given in patent publication US6812214B2, “Use of harpagid-related compounds for prevention and treatment of osteoporosis, arthritis and ruptured disc and pharmaceutical composition containing the same” (priority 2000, dated 2004).
“Also recorded” adds a separate entry of the source.

Experiments:
Raw 264.7 cell lines [1] = assay: Induction of apoptosis of macrophages; format: cell-based; details: Raw 264.7 cells; 10 μg/ml, 24 hours
Procedure: (§1) In order to determine whether the compound identified as the effective component of the pharmaceutical composition separated according to the present invention can induce the apoptosis of Raw 264.7 cell lines as macrophage involved in inflammatory reaction and synovial cells, the cells were distributed on 5% DMEM medium supplemented with penicillin/streptomycin in a 6-well culture dish at the concentration of 10^4 cells and then incubated at 37° C. for 24 hours while adding the extractions as above at the concentration of 10 μg/ml to observe the reaction. Apoptosis was examined by taking a photograph of apoptosis-induced cells under a polarizing microscope of 200 magnifications.

[2] = tested on: edema-induced albino rats; assay: Inhibitory effect on edema of arthritis (Zymosan-A / Freund's adjuvant induced paw edema); format: in vivo; details: for inhibitory effect on edema: in words, after 70 days
Procedure: In order to observe the inhibitory effect on edema of the pharmaceutical composition of the present invention, 6 albino rats weighing 200 g were used per test group to induce edema by injecting the mixture of 0.5 ml of Zymosan-A (20 mg/ml/kg) and 0.5 ml of Freund's adjuvant into ST36 position of left paw and then observed for the progress of edema for 70 days by taking a photograph before and after induction of edema. The water extract and organic solvent fractions of the pharmaceutical composition of the present invention were respectively constituted in the concentration of 0.6 mg/ml and then orally administered for 14 days to albino rats in an amount of 1 ml per kg of body weight once a day to determine the inhibitory effect on edema. As the test sample, the organic solvent fractions of the pharmaceutical composition including ABE, ABB, ABW, CBE, CBB, CBW, LNE, LNB, LNW, CRB, CRW, SSH and SSW were respectively used. As the result of this test, it was observed that edema was started to induce on day 4 and reached the peak point after about 45 days. The period for this test was established as 70 days after edema induction to observe the inhibitory effect on edema of the extracts of the present invention. As the result, the edema size was measured using a precision gauge.

COX-II [3] = assay: Inhibition of COX-II expression at the level of transcription through RT-PCR; format: cell-based
Procedure: In order to identify the ingredient having an inhibitory activity against COX-II and inducible nitric oxide synthetase (iNOS) as the causal factors of rheumatoid arthritis in the extract used as the effective component of the pharmaceutical composition according to the present invention as in Experiment 6 above, the cells were distributed in T75 flask at the concentration of 10^5 cells, incubated for 7 days and then stimulated for 2 hours by introducing LPS in the flask at the concentration of 50 ng/ml. Then, the extract of the present invention was added so as to make the final concentration of 50 μg/ml. The cells were harvested into a 1.5 ml Eppendorf tube and centrifuged with 15,000 rpm at 4° C. for 15 minutes to remove the supernatant. 200 μl of RNAzol solution was added to the residue followed by addition of 50 μl of chloroform. The cells were lysed by careful pippeting, and then centrifuged with 15,000 rpm at 4° C. for 15 minutes to recover a total RNA, which was then precipitated at 4° C. for 15 minutes by adding the same volume of isopropanol, washed once with 75% ethanol and then dried. The cell lysate was dissolved by adding 20 μl of […] and then warming the mixture at 60° C. for 30 minutes. Then, reverse transcriptase reaction was conducted at 50° C. for 20 minutes by adding 5 μl of 10 mM dNTP, 6 μl of 25 mM MgCl2, 5 μl of 10× RNA PCR buffer, 1 μl of RNase inhibitor, 1 μl of AMV-optimized Taq, 1 μl of AMV reverse transcriptase XL, 1 μl of 50 pM specific primer (sense/antisense), and 26 μl of RNase free dH2O to 5 μl of total RNA, and then stopped at 94° C. for 2 minutes to conduct DNA synthetic reaction (polymerase chain reaction: PCR). The PCR was conducted under conditions comprising 94° C. 1 minute, 55° C. 45 seconds, 70° C. 60 seconds for 35 cycles, and then, finally the elongation reaction was conducted at 70° C. for 5 minutes to complete the reaction. The resulting PCR product was eluted on 1% agarose gel and observed whether the bands are present near 395 bp and 278 bp on the basis of a size marker.

[4] = Effect on arthritis of the compounds isolated from Harpagophytum procumbens DC (summary statement); details: summary in background text
synovial cells = assay: Induction of apoptosis of synovial cell lines; format: cell-based, human; details: 10 μg/ml, 24 hours
Procedure: The synovial cells separated from outpatients suffering from rheumatoid arthritis were distributed on 5% DMEM medium supplemented with penicillin/streptomycin in a 6-well culture dish at the concentration of 10^4 cells and then incubated for 24 hours at 37° C. to observe the surviving cells. In order to determine the presence or absence of cells and the proliferating state of cells, apoptosis-induced cells were examined by taking their photographs under a phase-contrast microscope of 200 magnifications.
as §1

Raw 264.7 cell lines [5] = assay: Effect on cell cycle of macrophage cells (flow cytometry); format: cell-based; details: 20 μg/ml, LPS 50 ng/ml, propidium iodide flow cytometry
Procedure: (§2) Two kinds of cells were incubated as in Experiment 6 and then washed with PBS (phosphate-buffered saline). LPS was distributed on the respective dishes at the concentration of 50 ng/ml to stimulate the cells. Then, the extract according to the present invention was added over 2 hours so as to make the final concentration of 20 μg/ml. The supernatant was removed, washed with PBS and then treated with trypsin. The cells were harvested, introduced into Eppendorf tube and then centrifuged at 1,000 rpm for 5 minutes to remove the supernatant. The residue was fixed with addition of 1 ml of 100% ethanol. At this time, the mixture of 5 μg/ml propidium iodide and RNAse was separately prepared. The fixed cells were centrifuged to remove the supernatant and then washed once with PBS. Simultaneously, the staining agent as previously prepared above was added to the fixed cells and then warmed in an incubator at 37° C. for 30 minutes. The cells stained with propidium iodide was sealed with foil, stored at 4° C. and then subjected to a flow cytometry analysis using FACscan (Becton Dickinson, Calif.) as the analyzing apparatus.

synovial cell lines = assay: Effect on cell cycle of synovial cell lines (flow cytometry); format: cell-based, human; details: 20 μg/ml, LPS 50 ng/ml, propidium iodide flow cytometry
Procedure: as §2

[6] = tested on: nogo-A expressed U-373 MG cell line; assay: Neurite regeneration in nogo-A expressing glioblastoma cells (vertebral neuroparalysis); format: cell-based; details: nogo-A transfected U-373 cells; phase-contrast microscope
Description: Simultaneously, it was also observed whether neurites can be regenerated by treatment with neuronal growth factor (NGF) or whether the fractions of the present invention can provide the same effect, by taking a photograph with a phase-contrast microscope of 200 magnifications.

COX-II [7] = assay: Expression of COX-II protein by immunocytochemical analysis in synovial cells; format: cell-based; details: 10 μg/ml
Procedure: In order to determine whether the compound identified as the effective component of the pharmaceutical composition separated by the present invention induces an inhibitory effect on COX-II of synovial cells in joint portion, 10^4 synovial cells were distributed on 5% DMEM medium supplemented with penicillin/streptomycin in 6-well culture dish containing a slimb over glass, incubated for 24 hours at 37° C., during which the extract of the present invention was added to the concentration of 10 μg/ml to observe the reaction. The waste was removed and then, the cells were washed once with PBS, fixed with methanol and then washed with PBS. The cells were labeled with the primary antibody COX-II and then allowed to stand at 4° C. for about one hour. Then, the cells were labeled with a fluorescence (fluorescein isothiocyanate: FITC) as the secondary antibody, allowed to stand for about one hour while masking from light with foil and then observed under a fluorescence microscope.

[8] = tested on: NO formation in RAW 264.7 cell lines; assay: NO formation in macrophage cells stimulated by lipid polysaccharide; format: cell-based; details: 10 μg/ml; LPS 50 ng/well; Greiss reagent
Procedure: In order to identify whether the extracts obtained according to the present invention can inhibit the synthesis of nitric oxide (NO) as the potent inducer of inflammation in blood due to edema as above, macrophage RAW 264.7 cell lines were distributed in a 96-well microplate at the concentration of 10^3 cells per well and then incubated for 12 hours. Then, lipid polysaccharide was added to the plate at the concentration of 50 ng/well to stimulate the cells for 2 hours. The respective organic solvent fractions were added to the plate to the final concentration of 10 μg/ml followed by addition of 50 μl of Greiss reagent solution, and then allowed to react together at room temperature. Then, the absorbance of the plate was measured at 540 nm of ELISA (enzyme-linked immunosorbent assay) reader. For comparative analysis, 0.1, 1, 10, 20, 50, 100, 150 μM sodium nitrite as the standard solution were developed with sodium nitroprusside dihydrate (SNP).

[9] = tested on: edema-induced albino rats; assay: Joint rupture in edema-inhibited albino rats by X-ray analysis; format: in vivo; details: oral 14 days, 75 μg/ml; about 70 days
Procedure: The respective water extract and organic solvent fractions were orally administered for 14 days at the concentration of 75 μg/ml to investigate their inhibitory effect on edema as in Experiment 1. The test albino rats were anesthetized to take X-ray photograph.

iNOS = assay: Inhibition of iNOS expression at the level of transcription through RT-PCR; format: cell-based; details: FIG. 11a; 50 μg/ml; LPS 50 ng/ml
Procedure: In order to identify the ingredient having an inhibitory activity against COX-II and inducible nitric oxide synthetase (iNOS) as the causal factors of rheumatoid arthritis in the extract used as the effective component of the pharmaceutical composition according to the present invention as in Experiment 6 above, the cells were distributed in T75 flask at the concentration of 10^5 cells, incubated for 7 days and then stimulated for 2 hours by introducing LPS in the flask at the concentration of 50 ng/ml. Then, the extract of the present invention was added so as to make the final concentration of 50 μg/ml. The cells were harvested into a 1.5 ml Eppendorf tube and centrifuged with 15,000 rpm at 4° C. for 15 minutes to remove the supernatant. 200 μl of RNAzol solution was added to the residue followed by addition of 50 μl of chloroform. The cells were lysed by careful pippeting, and then centrifuged with 15,000 rpm at 4° C. for 15 minutes to recover a total RNA, which was then precipitated at 4° C. for 15 minutes by adding the same volume of isopropanol, washed once with 75% ethanol and then dried. The cell lysate was dissolved by adding 20 μl of […] and then warming the mixture at 60° C. for 30 minutes. […]

[10] = tested on: CAM formation induced by synovial cells; assay: Angiogenesis of synovial cells in chorioallantoic membrane (CAM) of fertilized egg; details: 10 μg/ml on CAM; compared to control group
Procedure: In order to determine the effect of the organic solvent fractions obtained in Experiment 1 on the angionenesis of synovial cells using the cells separated in Experiment 2, synovial cells were injected into fertilized egg and then incubated in an incubator at 37° C. for 3 days to observe the formation of chorioallantoic membrane (CAM). In the present state, the fractions separated according to the above method were respectively distributed on CAM at the concentration of 10 μg/ml to observe the degree of CAM decrease.

SMILES | induction of apoptosis (Raw 264.7 cell lines [1]) | edema size after treatment ([2]; Table 3 (best fractions), measured after 70 days, unit not given, in mm) | edema size before treatment ([2]; Table 3 (best fractions), unit not given, in mm) | inhibitory effect on edema [2] | effect on COX-II expression (RT-PCR) (COX-II [3]; FIG. 11c, respective fractions) | effect on arthritis [4] | induction of apoptosis (synovial cells) | effect on cell cycle (Raw 264.7 cell lines [5]) | effect on cell cycle (synovial cell lines) | neurite pattern (regeneration of neurites) [6] | COX-II protein expression (immunofluorescence, FITC) (COX-II [7]) | inhibition of NO formation [8] | osteogenesis (X-ray) [9] | rupture of cartilage in arthritic portion (X-ray) [9] | effect on iNOS expression (RT-PCR band near 278 bp) (iNOS) | effect on COX-II expression (RT-PCR) (COX-II [3]; FIG. 11a, 50 μg/ml, LPS 50 ng/ml) | induction of CAM formation (angiogenesis by synovial cells) [10]
C[C@]1(OC(=O)/C=C/c2ccccc2)C[C@@H](O)[C@]2(O)C=CO[C@@H](O[C@@H]3O[C@H](CO)[C@@H](O)[C@H](O)[C@H]3O)[C@@H]21 [LNE-1, harpagoside] | more strongly inducing the apoptosis | 5.1 ± 2 | 15.1 ± 2 | potent inhibitory effect on edema | strongly inhibit the protein expression | moderate pharmacological effect | more strongly inducing the apoptosis |  |  |  |  |  |  |  |  |  | 
OC[C@H]1O[C@H](OC[C@H]2O[C@H](OC[C@H]3O[C@H](O[C@]4(CO)O[C@H](CO)[C@@H](O)[C@@H]4O)[C@H](O)[C@@H](O)[C@@H]3O)[C@H](O)[C@@H](O)[C@H]2O)[C@H](O)[C@@H](O)[C@H]1O [LNE-2, starchyose] |  |  |  |  |  |  |  | induced G0/G1 arrest |  |  |  |  |  |  |  |  | 
C[C@]1(O)C[C@@H](O)[C@]2(O)C=CO[C@@H](O[C@H]3O[C@H](CO)[C@@H](O)[C@H](O)[C@H]3O)[C@@H]21 [LNE-3, harpagide] | more strongly inducing the apoptosis |  |  | potent inhibitory effect on edema; also recorded: most significant | strongly inhibit the protein expression | most effective | more strongly inducing the apoptosis |  | induced the apoptosis | neurites were lengthened | tendency to greatly decrease the protein expression | stronger inhibitory effect on NO formation | effect of stimulating the osteogenesis | inhibits the rupture of cartilage in arthritic portion | have an effect on the protein expression | inhibitory effect at the level of transcription | more strongly inhibited the induction of CAM formation
